Results reported in ChEMBL document CHEMBL3638722, “Inhibitors of cytochrome P450” (2015).
pIC50: −log10 of the molar value. Several values for one entry are separate records, joined by “and”; a condition that tells them apart may be missing. Equal values may be shown once.

Target: Cytochrome P450 3A4 (Homo sapiens, UniProt P08684)
Experiment: For testosterone hydroxylase activity the final microsomal protein concentration was 0.5 mg/mL, the substrate concentration was 50 uM and the LC-MS internal standard was D7-labeled 6beta -hydroxytestosterone.

Sequence of Cytochrome P450 3A4 (P08684 whole entry): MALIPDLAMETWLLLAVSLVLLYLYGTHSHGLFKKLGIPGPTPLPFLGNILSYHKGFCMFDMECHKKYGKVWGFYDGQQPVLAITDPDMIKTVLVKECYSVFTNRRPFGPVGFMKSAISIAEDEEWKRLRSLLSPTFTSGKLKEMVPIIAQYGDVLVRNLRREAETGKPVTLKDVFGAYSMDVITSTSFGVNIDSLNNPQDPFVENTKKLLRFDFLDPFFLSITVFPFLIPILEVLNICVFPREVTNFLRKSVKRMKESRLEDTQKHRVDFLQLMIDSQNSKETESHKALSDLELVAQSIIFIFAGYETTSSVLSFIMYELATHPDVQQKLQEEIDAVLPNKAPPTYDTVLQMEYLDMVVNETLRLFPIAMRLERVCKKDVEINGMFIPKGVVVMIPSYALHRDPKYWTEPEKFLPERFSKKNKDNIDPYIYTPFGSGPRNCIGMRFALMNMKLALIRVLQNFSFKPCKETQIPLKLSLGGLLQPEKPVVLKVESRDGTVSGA

CC(C)c1nc(CN(C)C(=O)NC2(C(=O)N[C@H](CC[C@H](Cc3ccccc3)NC(=O)OCc3cncs3)Cc3ccccc3)CCNCC2)cs1
pIC50: 6.82 and 6.47
